“Also recorded” adds a separate entry of the source.
What was measured:
[1] = system: HUVEC; test: Substrate cleavage in HUVEC, supernatant analysed by MALDI-TOF/TOF; type: in vitro ADME, human; settings: 100 µM substrate
Method: (§1) The experiment was independently conducted 4 times. […] The supernatants were desalted and concentrated by use of C18 ZipTips (Merck-Millipore, Burlington, MA, USA) and eluted directly on the MALDI target in 70% acetonitrile/0.1% TFA. Subsequently, a MALDI matrix solution of 2.5 mg/mL α-cyano-4-hydroxycinnamic acid in 70% acetonitrile/0.1% TFA was applied on each spot, air-dried at room temperature, and the target was introduced into a 4800 plus MALDI TOF/TOF^TM Analyzer. Mass spectrometry (MS) spectra (mass range: 600–4000 Da) were acquired in positive reflector mode with a laser intensity of 5000. To confirm the identity of the most important peptides, MS/MS spectra were generated by use of collision induced dissociation with a laser intensity of 5500. Calibration was done during analysis using the 6-peptide mixture (AB Sciex, Framingham, MA, USA). Mass spectra were generated by use of the 4000 Series Explorer and analyzed by mMas. […] The ratio of the peak intensity of the cleaved substrate to the peak intensity of the intact substrate is an indication for the C-terminal cleavage of the substrates. To check for additional cleavage sites, a search for other product peaks was completed. Statistical analysis was performed using SPSS software version 27 (IBM). Two-way ANOVA analysis was conducted to examine the effect of the two independent variables (treatment duration and treatment option) on the ratio of the peak intensities.

[2] = system: HAoEC; test: Substrate cleavage in HAoEC, supernatant analysed by MALDI-TOF/TOF; type: in vitro ADME, human
Method: as §1

[3] = target: T1, recombinant human PREP (Homo sapiens, UniProt P48147); test: Cleavage by recombinant PREP, MALDI-TOF/TOF; settings: pH 7.4 (0.1 M potassium phosphate, 1 mM EDTA, 5 mM DTT), 100 µM substrate, 0 s to 1 h
T1 sequence (P48147 1-710): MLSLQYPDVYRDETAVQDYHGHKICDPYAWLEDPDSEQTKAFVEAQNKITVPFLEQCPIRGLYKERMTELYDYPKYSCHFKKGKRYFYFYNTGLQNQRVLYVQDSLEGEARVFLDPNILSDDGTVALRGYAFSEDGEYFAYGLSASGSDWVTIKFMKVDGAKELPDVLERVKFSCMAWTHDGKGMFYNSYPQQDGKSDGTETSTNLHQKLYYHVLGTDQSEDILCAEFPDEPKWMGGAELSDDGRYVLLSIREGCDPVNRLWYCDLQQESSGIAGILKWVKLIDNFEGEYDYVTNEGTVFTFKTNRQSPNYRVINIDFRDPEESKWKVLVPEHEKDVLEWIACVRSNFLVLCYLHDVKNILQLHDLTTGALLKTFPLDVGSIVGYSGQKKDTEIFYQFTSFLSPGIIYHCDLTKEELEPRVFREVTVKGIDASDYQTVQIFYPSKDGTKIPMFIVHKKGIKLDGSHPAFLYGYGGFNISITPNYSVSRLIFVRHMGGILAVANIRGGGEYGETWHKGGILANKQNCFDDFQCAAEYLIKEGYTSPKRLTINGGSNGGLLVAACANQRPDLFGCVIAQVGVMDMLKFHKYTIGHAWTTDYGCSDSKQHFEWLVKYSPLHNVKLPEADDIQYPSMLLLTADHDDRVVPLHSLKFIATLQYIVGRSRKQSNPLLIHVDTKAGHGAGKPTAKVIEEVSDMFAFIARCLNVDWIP
Method: Supplementary Material File S3. Cleavage by recombinant PREP
Recombinant human PREP, expressed in BL21 (DE3) cells as previously described, was […]
(Laboratory for Medicinal Chemistry, University of Antwerp) or vehicle control at pH 7.4 (0.1 M potassium phosphate, 1 mM EDTA and 5 mM DTT). 100 μM substrate ((pyr)-apelin-13, (pyr)-apelin-13(1-12), Ang II or α-MSH 1-13) or vehicle control (PBS) was added. The reaction was stopped by acidification (pH<3) with 0.1% TFA after different time periods (0 s, 30 s, 1 min, 5 min, 15 min, 30 min or 1 h) and samples were stored at -80 °C.
A search for product peaks of the different peptides was conducted.
1. Van Elzen, R.; Schoenmakers, E.; Brandt, I.; Van Der Veken, P.; Lambeir, A.M.
Ligand-induced conformational changes in prolyl oligopeptidase: A kinetic approach.

[4] = target: T2, secreted PRCP in HUVEC supernatant (Homo sapiens, UniProt P42785); test: Incubation of (pyr)-apelin-13 with 24 h cellular supernatant of HUVEC; type: in vitro ADME; settings: 100 µM substrate
T2 construct: endogenous in cells; host or cells: HUVEC and HAoEC (cell lysate and culture supernatant)
T2 sequence (P42785 46-496): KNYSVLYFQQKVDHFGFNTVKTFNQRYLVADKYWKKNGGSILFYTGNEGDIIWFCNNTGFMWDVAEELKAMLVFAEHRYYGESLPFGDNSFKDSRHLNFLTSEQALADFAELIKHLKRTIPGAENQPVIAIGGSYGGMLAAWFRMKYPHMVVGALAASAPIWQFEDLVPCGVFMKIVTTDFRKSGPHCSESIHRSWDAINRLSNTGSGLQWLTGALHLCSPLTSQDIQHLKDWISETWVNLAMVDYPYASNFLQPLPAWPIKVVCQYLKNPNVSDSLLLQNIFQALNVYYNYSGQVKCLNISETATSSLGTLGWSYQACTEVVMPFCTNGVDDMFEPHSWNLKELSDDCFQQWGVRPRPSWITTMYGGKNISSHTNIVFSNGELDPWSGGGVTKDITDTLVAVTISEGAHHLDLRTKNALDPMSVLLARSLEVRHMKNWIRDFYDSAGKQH
Method: Supplementary Material File S4. Incubation of (pyr)-apelin-13 with cellular supernatant HUVEC were seeded at a density of 10 000 cells per well in 96-well plates in 100 µL full medium. After 24 h, medium was replaced by assay medium and the cells were incubated for another 24 h at 37 °C in 5% CO2. After 24 h, cell supernatants were harvested and incubated with vehicle control (1% DMSO) or 1 µM compound 8o for 15 min at 37 °C. Then, 100 μM (pyr)-apelin-13 or vehicle control (PBS) was added. The reaction was stopped by acidification (pH<3) with 0.1% TFA after 1 h and the samples were stored at -80 °C until further processing.
The experiment was independently conducted 4 times. To detect the cleavage of (pyr)-apelin-13 (m/z 1533.8), the samples were analysed by MALDI-TOF/TOF.
However, comparing this experiment with the initial experiment where (pyr)-apelin-13 was added to the cells for 24 h (Figure 1 of main manuscript), much less (pyr)-apelin-13 was […]
terminal (pyr)-apelin-13 cleavage seen in the initial experiment.
Figure S4.1: Incubation of 24 h cellular supernatant with (pyr)-apelin-13 during 1 h. (Pyr)- […]
(1 picture or pasted object on this page, not shown here)

[5] = plasma; cited from earlier work
Source text: Although (pyr)-apelin-13 has increased stability and a longer plasma half-life in comparison with the non-pyroglutamated isoforms, it still has a short half-life of only minutes. Angiotensin-converting enzyme 2 (ACE2, EC 3.4.17.23) was always considered to be the only enzyme responsible for the hydrolysis of the C-terminal Phe of (pyr)-apelin-13 [28, 29, 30], until we identified PRCP as an apelin-cleaving enzyme in 2016, during the search for new PRCP-substrates based on amino acid sequence. Although many efforts were made to elucidate the importance of this C-terminal P ...

## CSCC[C@H](NC(=O)[C@@H]1CCCN1C(=O)CNC(=O)[C@H](CCCCN)NC(=O)[C@H](Cc1cnc[nH]1)NC(=O)[C@H](CO)NC(=O)[C@H](CC(C)C)NC(=O)[C@H](CCCNC(=N)N)NC(=O)[C@@H]1CCCN1C(=O)[C@H](CCCNC(=N)N)NC(=O)[C@@H]1CCC(=O)N1)C(=O)N1CCC[C@H]1C(=O)N[C@@H](Cc1ccccc1)C(=O)O [(pyr)-apelin-13]
[1]; HUVEC 10,000 cells/well, assay medium (5% full medium in HBSS), 37 °C, 0/2/4/8/24 h, all treatment groups, MALDI-TOF/TOF, n = 4
  C-terminal cleavage of (pyr)-apelin-13 to (pyr)-apelin-13(1–12), ratio of peak intensities in the supernatant: significant after 24 h
[1]; HUVEC pre-treated 15 min with 1 µM compound 8o (PRCP) and/or 1 µM DX600 (ACE2), 24 h, n = 4
  Enzyme dependence of cleavage of (pyr)-apelin-13 to (pyr)-apelin-13(1–12): PRCP-dependent
[1]; HUVEC, MALDI-TOF/TOF
  Cleavage of (pyr)-apelin-13 to (pyr)-apelin-13(1-6): could not be detected
[2]; HAoEC 10,000 cells/well, 100 µM substrate, assay medium (5% full medium in HBSS), 37 °C, 0/2/4/8/24 h, all treatment groups, MALDI-TOF/TOF, n = 4
  C-terminal cleavage of (pyr)-apelin-13 to (pyr)-apelin-13(1–12), ratio of peak intensities in the supernatant: significant after 24 h
[2]; HAoEC pre-treated 15 min with 1 µM compound 8o (PRCP) and/or 1 µM DX600 (ACE2), 100 µM substrate, 24 h, n = 4
  Enzyme dependence of cleavage of (pyr)-apelin-13 to (pyr)-apelin-13(1–12): PRCP- and ACE2-dependent
[2]; HAoEC, 1 µM compound 8o and/or 1 µM DX600, data not shown
  Involvement of PRCP and ACE2 in cleavage of (pyr)-apelin-13 to (pyr)-apelin-13(1-6): none of the studied enzymes were involved
[2]; HAoEC, all treatment groups, 100 µM substrate, MALDI-TOF/TOF, data not shown
  Cleavage of (pyr)-apelin-13 to (pyr)-apelin-13(1-6): significant from 8 h onwards
[2]; control, PRCP-inhibited and ACE2-inhibited HAoEC, 100 µM substrate, 37 °C, MALDI-TOF/TOF, n = 4
  C-terminal cleavage of (pyr)-apelin-13 to (pyr)-apelin-13(1–12), earliest observable time: already observable after 8 h
[3]
  Cleavage by recombinant human PREP: did not cleave; also recorded: could not observe
[4]; 1 h, 37 °C, MALDI-TOF/TOF, 4 independent experiments
  C-terminal cleavage of (pyr)-apelin-13 in cell-free 24 h HUVEC supernatant: cleaved at its C-terminus after 1 h
[4]; 1 h versus 24 h with cells
  Extent of PRCP-mediated cleavage in cell-free HUVEC supernatant compared with the cellular experiment: to a much lesser extent
[5]
  half-life: only minutes

— PMC8268575 (International Journal of Molecular Sciences, 2021)
